Patent publication US20220324865A1 (Bayer Aktiengesellschaft, priority 2018, published 2022)
Where a name gives a salt, the structure may show the parent alone.

What follows are compounds tested against T1, human EP3 receptor (Homo sapiens, UniProt P43115) (assay: Cellular in vitro assay for determining EP3 receptor activity (human EP3 cell line, sulprostone-stimulated calcium luminescence)). Settings: CHO cells expressing human EP3 and mitochondrial Clytin; antagonist mode, sulprostone at EC50; read-out: EP3 CHO mtCLY ANTAG IC50.
T1 construct: expressed in transfected cells; host or cells: CHO K1 (Chinese Hamster Ovary), stably co-transfected with Galpha16 and mitochondrial clytin
T1 sequence (P43115 1-390): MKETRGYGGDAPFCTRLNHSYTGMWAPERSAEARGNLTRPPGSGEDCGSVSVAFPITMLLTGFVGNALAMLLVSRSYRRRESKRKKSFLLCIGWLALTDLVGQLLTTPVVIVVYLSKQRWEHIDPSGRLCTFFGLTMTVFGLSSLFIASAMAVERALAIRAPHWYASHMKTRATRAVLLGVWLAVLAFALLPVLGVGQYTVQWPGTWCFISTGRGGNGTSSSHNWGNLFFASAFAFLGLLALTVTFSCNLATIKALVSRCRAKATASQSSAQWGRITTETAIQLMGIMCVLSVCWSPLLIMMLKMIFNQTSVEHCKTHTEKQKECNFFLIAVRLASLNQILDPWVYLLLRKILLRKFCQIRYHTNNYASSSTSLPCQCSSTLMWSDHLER
Assay type: cell-based
Protocol: B-1. Cellular In Vitro Assay for Determining EP3 Receptor Activity
The identification of antagonists of the EP3 receptor from humans and rats as well as the quantification of the activity of the compounds of the invention was carried out using recombinant cell lines. These cell lines originally derive from a hamsters ovary epithelial cell (Chinese Hamster Ovary, CHO K1, ATCC: American Type Culture Collection, Manassas, Va. 20108, USA). The test cell lines constitutively express the human or rat EP3 receptors. The naturally Gαi-coupled human and rat EP3 receptors were stably co-transfected with Gα16 into cells that are also stably transfected with a mitochondrial form of the calcium-sensitive photoproteins Clytin (human EP3) or Photina (rat EP3), which, after reconstitution with the cofactor coelenterazine, emit light when there are increases in free calcium concentrations (Nature 1992, 358, 325-327; Gene 1995, 153 (2), 273-274). The resulting EP3 receptor cells react to stimulation of the recombinantly expressed EP3 receptors by the agonist sulprostone with intracellular release of calcium ions, which can be quantified by the resulting photoprotein luminescence. Antagonists inhibit the receptor signaling, leading to reduced calcium release and luminescence. The bioluminescence of the cell lines is detected using a suitable luminometer (Trends Pharmacol. Sci. 1996, 17, 235-237).
Human and Rat EP3 Cell Lines:
On the day before the assay, the cells are plated out in culture medium (OptiMEM, 1% FCS, 2 mM glutamine, 10 mM HEPES, 5 μg/ml coelenterazine) in 384-well microtiter plates and kept in a cell incubator (96% humidity, 5% v/v CO2, 37° C.). On the day of the assay, test compounds in various concentrations are placed for 10 minutes in the wells of the microtiter plate before the agonist sulprostone at EC50 concentration is added. The resulting light signal is measured immediately in a luminometer. All concentrations are measured in quadruples.

| Structure (SMILES) | IC50 |
| --- | --- |
| N#Cc1c(C(=O)NC2(c3ccccc3)CC2)nn2cc(-c3ccc4ccccc4c3)[nH]c(=O)c12 [Example 3-49, 3-Cyano-6-(naphthalen-2-yl)-4-oxo-N-(1-phenylcyclopropyl)-4,5-dihydropyrazolo[1,5-a]pyrazine-2-carboxamide] | 1.35 nM |
| COc1ccc(C(C)NC(=O)c2nn3c(C)c(-c4ccc5ccccc5c4)[nH]c(=O)c3c2C)cc1 (centres unmarked) [Example 3-57, N-[1-(4-Methoxyphenyl)ethyl]-3,7-dimethyl-6-(2-naphthyl)-4-oxo-5H-pyrazolo[1,5-a]pyrazine-2-carboxamide] | 2.95 nM |
| C[C@@H](NC(=O)c1cc2c(=O)[nH]c(-c3ccc4c(c3)N(C)CCO4)cn2n1)c1ccc(F)cc1 [Example 1-102, N-[(1R)-1-(4-Fluorophenyl)ethyl]-6-(4-methyl-3,4-dihydro-2H-1,4-benzoxazin-6-yl)-4-oxo-4,5-dihydropyrazolo[1,5-a]pyrazin-2-carboxamide] | 1.35 nM |
| Cc1ccc(-c2cn3nc(C(=O)NCC(O)C(F)(F)F)c(C4CC4)c3c(=O)[nH]2)cc1Cl (single isomer, unassigned) [6-259] | 0.64 nM |
| Cc1ccc(-c2cn3nc(C(=O)NCC(O)C(F)(F)F)c(C(F)(F)F)c3c(=O)[nH]2)cc1Cl (single isomer, unassigned) [6-159] | 2.3 nM |
| O=C(NC(c1ccccc1)C(F)F)c1cc2c(=O)[nH]c(-c3ccc4ccccc4c3)cn2n1 (centres unmarked) [Example 2-4, N-(2,2-Difluoro-1-phenylethyl)-6-(2-naphthyl)-4-oxo-4,5-dihydropyrazolo[1,5-a]pyrazine-2-carboxamide] | 1.07 nM |
| Cc1c(C(=O)NC2(c3ccc(F)cc3)CN(C)C2)nn2cc(-c3ccc4ccccc4c3)[nH]c(=O)c12 [Example 1-35, N-[3-(4-Fluorophenyl)-1-methylazetidin-3-yl]-3-methyl-6-(naphthalen-2-yl)-4-oxo-4,5-dihydropyrazolo[1,5-a]pyrazine-2-carboxamide hydrochloride] | 4.25 nM |
| Cc1cccc2ncc(-c3cn4nc(C(=O)NCc5ccc(CN6CCCC6)cc5)c(C(C)C)c4c(=O)[nH]3)cc12 [Example 4-48, 6-(5-Methylquinolin-3-yl)-4-oxo-3-(propan-2-yl)-N-({4-[(pyrrolidin-1-yl)methyl]phenyl}methyl)-4,5-dihydropyrazolo[1,5-a]pyrazine-2-carboxamide] | 4.75 nM |
| Cc1c(C(=O)N[C@@H](c2ccc(F)cc2)C(C)(C)O)nn2c(C)c(-c3ccc4ccccc4c3)[nH]c(=O)c12 [6-604] | 1.85 nM |
| Cc1ccc(-c2cn3nc(C(=O)N[C@H]4CCOC4)c(C(F)(F)F)c3c(=O)[nH]2)cc1Cl [6-186] | 5.35 nM |
| CCN(CCO)CC(NC(=O)c1nn2cc(-c3ccc4ccccc4c3)[nH]c(=O)c2c1C(F)(F)F)c1ccccc1 (centres unmarked) [Example 1-28, N-[2-[Ethyl(2-hydroxyethyl)amino]-1-phenylethyl]-6-(2-naphthyl)-4-oxo-3-(trifluoromethyl)-5H-pyrazolo[1,5-a]pyrazine-2-carboxamide] | 0.855 nM |
| CN(C)C[C@@H](NC(=O)c1cc2c(=O)[nH]c(-c3ccc4ccccc4c3)cn2n1)c1ccccc1 [Example 1-38, N-[(1S)-2-(Dimethylamino)-1-phenylethyl]-6-(naphthalen-2-yl)-4-oxo-4,5-dihydropyrazolo[1,5-a]-pyrazine-2-carboxamide formic acid salt] | 4.09 nM |
| Cc1ccc(-c2cn3nc(C(=O)N[C@H](C)C(C)C)c(C(C)C)c3c(=O)[nH]2)cc1C [Example 1-141, 6-(3,4-Dimethylphenyl)-N-[(2R)-3-methylbutan-2-yl]-4-oxo-3-(propan-2-yl)-4,5-dihydropyrazolo-[1,5-a]pyrazine-2-carboxamide] | 1.7 nM |
| CC(C)(O)[C@@H](NC(=O)c1nn2cc(-c3ccc(Cl)c(Cl)c3)[nH]c(=O)c2c1C1CC1)c1ccc(F)cc1 [Example 1-168, 3-Cyclopropyl-6-(3,4-dichlorophenyl)-N-[(1S)-1-(4-fluorophenyl)-2-hydroxy-2-methylpropyl]-4-oxo-4,5-dihydropyrazolo[1,5-a]pyrazine-2-carboxamide] | 1.9 nM |
